From patent US7256207B2, “Inhibitors of cathepsin S” (IRM LLC, priority 2003, dated 2007)

What was measured:
Type in all cases: biochemical
Cathepsin K = target: T1, Cathepsin K (Homo sapiens, UniProt P43235); assay: Cathepsin K inhibition assay, fluorogenic peptide substrate (selectivity for Cat. S over Cat. K); details: ratio of cathepsin K inhibition constant to cathepsin S inhibition constant
T1 sequence (P43235 115-329): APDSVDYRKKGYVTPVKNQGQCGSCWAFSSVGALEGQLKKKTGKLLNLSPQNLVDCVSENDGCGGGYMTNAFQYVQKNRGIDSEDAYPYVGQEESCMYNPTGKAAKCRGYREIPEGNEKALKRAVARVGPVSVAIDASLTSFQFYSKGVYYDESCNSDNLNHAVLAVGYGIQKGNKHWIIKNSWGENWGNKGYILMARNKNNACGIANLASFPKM
Procedure: (§1) The optimal substrate for cathepsin K, acetyl-lysine-histidine-proline-lysine-amino carbamoyl coumarin, was identified from screening a combinatorial library of fluorogenic peptide substrates (Harris, J. L., B. J. Backes, et al. Proc Natl Acad Sci U S A 2000, 97(14), 7754-9). Kinetic measurements are performed in a total reaction volume of 30 μl in 384-well microtiter plates. Cathepsin K, at a final concentration of 3.5 nM (active site), is incubated with the compounds at twelve varying concentrations in a buffer containing 100 mM NaAc (pH5.5), 1 mM EDTA, 100 mM NaCl, 0.01% Brij-35 for 20 minutes at room temperature. Control reactions in the absence of inhibitor are performed in replicates of 24. The reactions are initiated by adding the substrate, acetyl-lysine-histidine-proline-lysine-amino carbamoyl coumarin, to a final concentration of 40 μM. The rate of substrate hydrolysis is measured by monitoring the increase in fluorescence at an excitation wavelength of 380 nm and an emission wavelength of 450 nm that results from cleavage of the aniline bond in the substrate by the enzyme. The apparent inhibition constants for the compounds are determined from the enzyme progress curves (Kuzmic, P., K. C. Elrod, et al. Anal Biochem 2000, 286(1), 45-50) and are then used to calculate the inhibition constants for competitive inhibitors.
(§2) Selectivity for cathepsin S in the presence of cathepsin isozymes was determined by the ratio of the cathepsin isozyme inhibition constant of a compound of the present invention to the cathepsin S inhibition constant of the same compound. Preferred compounds of the present invention selective for cathepsin S have ratios of greater than 10. More preferred compounds of the present invention selective for cathepsin S have ratios of greater than 100. Most preferred compounds of the present invention selective for cathepsin S have ratios of greater than 1000.

Cathepsin L = Cathepsin L (Homo sapiens, UniProt P07711); assay: Cathepsin L inhibition assay, fluorogenic peptide substrate (selectivity for Cat. S over Cat. L); details: ratio of cathepsin L inhibition constant to cathepsin S inhibition constant
Sequence of Cathepsin L (P07711 114-333, species assumed): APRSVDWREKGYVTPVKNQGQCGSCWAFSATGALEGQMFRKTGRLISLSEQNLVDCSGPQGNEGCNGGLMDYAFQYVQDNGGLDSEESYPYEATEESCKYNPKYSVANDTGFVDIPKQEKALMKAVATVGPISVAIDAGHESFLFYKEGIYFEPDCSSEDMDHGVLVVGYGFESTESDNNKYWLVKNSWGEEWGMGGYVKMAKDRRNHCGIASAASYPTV
Procedure: as §1, with “L, acetyl-histidine-lysine-phenylalanine-lysine-amino” for “K, acetyl-lysine-histidine-proline-lysine-amino”, “L,” for “K,”, “0.1” for “3.5”, “acetyl-histidine-lysine-phenylalanine-lysine-amino” for “acetyl-lysine-histidine-proline-lysine-amino”, “20” for “40”
as §2

Cathepsin S = Cathepsin S (Homo sapiens, UniProt P25774); assay: Cathepsin S inhibition assay, fluorogenic peptide substrate; details: Cathepsin S inhibition constant; pH5.5, 20 minutes preincubation at room temperature; read-out: Ki Cat. S
Sequence of Cathepsin S (P25774 115-331, species assumed): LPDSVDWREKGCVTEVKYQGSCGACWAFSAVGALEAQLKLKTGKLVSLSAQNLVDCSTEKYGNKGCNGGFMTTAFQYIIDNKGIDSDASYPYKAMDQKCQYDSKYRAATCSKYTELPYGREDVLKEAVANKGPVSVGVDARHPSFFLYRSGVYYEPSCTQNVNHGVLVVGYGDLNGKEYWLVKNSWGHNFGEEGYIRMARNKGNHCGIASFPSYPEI
Procedure: as §1, with “S, acetyl-histidine-proline-valine-lysine-amino” for “K, acetyl-lysine-histidine-proline-lysine-amino”, “S,” for “K,”, “0.3-3” for “3.5”, “acetyl-histidine-proline-valine-lysine-amino” for “acetyl-lysine-histidine-proline-lysine-amino”, “50” for “40”

Cathepsin B = Cathepsin B (Homo sapiens, UniProt P07858); assay: Cathepsin B inhibition assay, fluorogenic peptide substrate (selectivity for Cat. S over Cat. B); details: ratio of cathepsin B inhibition constant to cathepsin S inhibition constant
Procedure: as §1, with “B, acetyl-histidine-proline-valine-lysine-amino” for “K, acetyl-lysine-histidine-proline-lysine-amino”, “B,” for “K,”, “1.5” for “3.5”, “acetyl-histidine-proline-valine-lysine-amino” for “acetyl-lysine-histidine-proline-lysine-amino”, “[…].” for “40 μM.”
as §2

| Structure (SMILES) | Selectivity for Cat. S over Cat. K (Cathepsin K) | Selectivity for Cat. S over Cat. L (Cathepsin L) | Ki (Cathepsin S) | Selectivity for Cat. S over Cat. B (Cathepsin B) |
| --- | --- | --- | --- | --- |
| C[C@@H](CNc1ccc(OC(F)(F)F)cc1)NC(=O)O[C@@H](CC1CCCC1)Cn1cnc2cc(Cl)c(Cl)cc21 [Example 10, 1-(S)-Cyclopentylmethyl-2-(5,6-dichloro-benzimidazol-1-yl)-ethyl [2-(4-trifluoromethoxy-phenylamino)-1-(S)-methyl-ethyl]carbamate] | + (+, >10) | + (+, >10) | < 100 nM | +++ (+++, >1000) |
| CC(C)(C)C[C@@H](Cn1cnc2cc(Cl)c(Cl)cc21)OC(=O)N[C@@H](CO)CN1CCc2cc(F)ccc21 [Example 2, 1-(S)-(5,6-Dichloro-benzimidazol-1-ylmethyl)-3,3-dimethyl-butyl [2-(5-fluoro-2,3-dihydro-indol-1-yl)-1-(R)-hydroxymethyl-ethyl]carbamate] | ++ (++, >100) | + (+, >10) | < 100 nM | +++ (+++, >1000) |
| C[C@@H](CNc1ccc(OC(F)F)cc1)NC(=O)O[C@@H](CC1CCCC1)Cn1ccc(C(F)(F)F)n1 [Example 7, 1-(S)-Cyclopentylmethyl-2-(3-trifluoromethyl-pyrazol-1-yl)-ethyl [2-(4-difluoromethoxy-phenylamino)-1-(S)-methyl-ethyl]carbamate] | + (+, >10) | ++ (++, >100) | < 1000 nM | ++ (++, >100) |
| C[C@@H](CN1CCc2cc(F)ccc21)NC(=O)O[C@H](CN1CCOCC1)CC(C)(C)C [Example 5, 3,3-Dimethyl-(S)-1-morpholin-4-ylmethyl-butyl [2-(5-fluoro-2,3-dihydro-indol-1-yl)-1-(S)-methyl-ethyl]carbamate] | − (−, <10) | ++ (++, >100) | < 1000 nM | ++ (++, >100) |
| C[C@@H](CN1CCc2cc(F)ccc21)NC(=O)O[C@H](Cn1cnc2ccccc21)CC(C)(C)C [Example 4, 1-(S)-(Benzimidazol-1-ylmethyl-3,3-dimethyl)-butyl [2-(5-fluoro-2,3-dihydro-indol-1-yl)-1-(S)-methyl-ethyl]carbamate] | + (+, >10) | ++ (++, >100) | < 100 nM | +++ (+++, >1000) |
| C[C@@H](CNc1ccc(OC(F)F)cc1)NC(=O)O[C@@H](CC1CCCC1)Cn1cnc2cc(Cl)c(Cl)cc21 [Example 8, 1-(S)-Cyclopentylmethyl-2-(5,6-dichloro-benzimidazol-1-yl)-ethyl [2-(4-difluoromethoxy-phenylamino)-1-(S)-methyl-ethyl]carbamate] | + (+, >10) | ++ (++, >100) | < 1000 nM | +++ (+++, >1000) |
| C[C@@H](CN1CC(C)(C)c2cc(F)ccc21)NC(=O)O[C@H](Cn1cnc2ccccc21)CC(C)(C)C [Example 11, 1-(S)-(Benzimidazol-1-ylmethyl-3,3-dimethyl)-butyl [2-(5-fluoro-3,3-dimethyl-2,3-dihydro-indol-1-yl)-1-(S)-methyl-ethyl]carbamate] | − (−, <10) | ++ (++, >100) | < 100 nM | +++ (+++, >1000) |
| CC(C)(C)C(Cn1cnc2cc(Cl)c(Cl)cc21)OC(=O)N[C@@H](CO)CN1CCc2cc(F)ccc21 (mixture of isomers) [Example 3, 1-(5,6-Dichloro-benzimidazol-1-ylmethyl)-2,2-dimethyl-propyl [2-(5-fluoro-2,3-dihydro-indol-1-yl)-1-(R)-hydroxymethyl-ethyl]carbamate] | + (+, >10) | − (−, <10) | < 100 nM | + (+, >10) |
| C[C@@H](CN1CCc2cc(F)ccc21)NC(=O)O[C@@H](CC1CCCC1)Cn1cnc2cc(Cl)c(Cl)cc21 [Example 9, 1-(S)-cyclopentylmethyl-2-(5,6-dichloro-benzimidazol-1-yl)-ethyl [2-(5-fluoro-2,3-dihydro-indol-1-yl)-1-(S)-methyl-ethyl]carbamate] | + (+, >10) | + (+, >10) | < 100 nM | +++ (+++, >1000) |
| CC(C)(C)C[C@@H](Cn1cnc2ccccc21)OC(=O)N[C@@H](CO)CN1CCc2cc(F)ccc21 [Example 12, 1-(S)-(Benzimidazol-1-ylmethyl)-3,3-dimethyl-butyl [2-(5-fluoro-2,3-dihydro-indol-1-yl)-1-(R)-hydroxymethyl-ethyl]carbamate] | − (−, <10) | ++ (++, >100) | < 100 nM | +++ (+++, >1000) |
